{"source": "patent US4508926A", "about": "“4-Hydroxy-benzhydrols, process for their preparation and pharmaceutical compositions containing them” (Richter Gedeon Vegyeszeti Gyar Rt., priority 1982, dated 1985)", "key": {"[1]": {"assay": "Acute oral toxicity, 14 days observation", "conditions": "rat, in vivo, 500 mg/kg"}, "ethanolic narcosis": {"test_system": "ethanolic narcosis", "assay": "Ethanolic narcosis period in rats (righting reflex)", "type": "in vivo, Hann.-Wistar rats", "conditions": "1 h before ethanol i.p., n=10, control 100 ± 5.2", "procedure": "The animals were treated with various doses of the compounds of the formula (I) in groups of ten, orally, One hour after treatment the rats were treated with […]. of ethanol intraperitoneally (i.p.). The narcosis period of the animals was measured from the elapse of the righting reflex until a spontaneous correction of the body position. The average of the narcosis period and the percentage difference from the control were calculated. The control group was treated with placebo and […]. of ethanol."}, "[2]": {"test_system": "alcoholic intoxication, narcosis", "conditions": "in vivo; cited from earlier work"}, "[3]": {"test_system": "spontaneous locomotoric activity", "conditions": "in the dose range that normalizes ethanolic hyperactivity; cited from earlier work"}, "[4]": {"test_system": "ethanolic locomotoric hyperactivity", "conditions": "mice; in a dose range which decreases spontaneous locomotoric activity; cited from earlier work"}}, "data": [{"smiles": "CCC(O)(c1ccc(O)cc1)c1ccccc1C(F)(F)F", "note": "(stereo not drawn) [A, 2-trifluoromethyl-4'-hydroxy-α-ethyl-benzhydrol]", "values": [{"measurement": "mortality at 336 h", "setting": "[1]", "result": 0, "unit": "%"}, {"measurement": "Ethanolic narcosis period, x ± S.E.", "setting": "ethanolic narcosis; 5.0 mg./kg. orally", "result": "69 ± 4.5"}, {"measurement": "Ethanolic narcosis period, x ± S.E.", "setting": "ethanolic narcosis; 20.0 mg./kg. orally", "result": "52 ± 6.0"}, {"measurement": "Ethanolic narcosis period, x ± S.E.", "setting": "ethanolic narcosis; 40.0 mg./kg. orally", "result": "39 ± 3.4"}]}, {"smiles": "CCC(O)(c1ccc(O)cc1)c1cccc(Cl)c1", "note": "(stereo not drawn) [B, 3-chloro-4'-hydroxy-α-ethyl-benzhydrol]", "values": [{"measurement": "mortality at 336 h", "setting": "[1]", "result": 0, "unit": "%"}, {"measurement": "Ethanolic narcosis period, x ± S.E.", "setting": "ethanolic narcosis; 40.0 mg./kg. orally", "result": "60 ± 7.5"}]}, {"smiles": "N[C@@H](CS)C(=O)O", "note": "[L-cysteine, reference compound]", "values": [{"measurement": "Alcoholic intoxication, narcosis", "setting": "[2]", "result": "shortened"}, {"measurement": "Ethanolic narcosis period, x ± S.E.", "setting": "ethanolic narcosis; 500.0 mg./kg.", "result": "63 ± 4.2"}, {"measurement": "Ethanolic narcosis period, x ± S.E.", "setting": "ethanolic narcosis; 1000.0 mg./kg.", "result": "66 ± 5.9"}]}, {"smiles": "CC(N)(Cc1ccc(O)cc1)C(=O)O", "note": "(stereo not drawn) [α-Methyl-para-tyrosine]", "values": [{"measurement": "Spontaneous locomotoric activity", "setting": "[3]", "result": "decreases the spontaneous locomotoric activity"}, {"measurement": "Ethanolic locomotoric hyperactivity", "setting": "[4]", "result": "normalizes the ethanolic locomotoric hyperactivity"}]}]}
